Results published in the OligoGym collection.
HELM strings list units from the 5' end as sugar, base in round brackets, then linkage (d deoxyribose, r ribose, m 2'-O-methyl, p phosphodiester). Strings are as the collection lists them; they lack the last nucleoside at the 3' end of the tested compound. [moe] = 2'-O-(2-methoxyethyl) (MOE); [sp] = phosphorothioate linkage; [m5C] = 5-methylcytosine

target: GFAP; assay: mouse, dose not given; conditions: ASO

Substance	3 h FOB score
RNA1{[moe](G)[sp].[moe]([m5C])p.[moe](A)p.[moe](T)p.[moe](T)[sp].d(T)[sp].d(G)[sp].d(T)[sp].d([m5C])[sp].d(T)[sp].d(T)[sp].d(T)[sp].d(A)[sp].[moe](T)p.[moe](T)p.[moe](T)[sp].[moe](T)}$$$$ (last 3' nucleoside missing)	1 score 0-7
RNA1{[moe](A)[sp].[moe]([m5C])p.[moe](A)p.[moe](T)p.[moe](T)p.[moe]([m5C])p.d(A)[sp].d([m5C])[sp].d(T)[sp].d(A)[sp].d(A)[sp].d(T)[sp].d(A)[sp].d(T)[sp].d(T)[sp].d(T)[sp].[moe](A)p.[moe](A)[sp].[moe]([m5C])}$$$$ (last 3' nucleoside missing)	0 score 0-7
RNA1{[moe](G)[sp].[moe](A)p.[moe](A)p.[moe](T)p.[moe](G)[sp].d(G)[sp].d(T)[sp].d(G)[sp].d(A)[sp].d(T)[sp].d([m5C])[sp].d([m5C])[sp].d(G)[sp].d(G)[sp].d(T)[sp].[moe](T)p.[moe]([m5C])p.[moe](T)[sp].[moe]([m5C])}$$$$ (last 3' nucleoside missing)	5 score 0-7
RNA1{[moe](A)[sp].[moe]([m5C])p.[moe](A)p.[moe](T)p.d(T)[sp].d([m5C])[sp].d(A)[sp].d([m5C])[sp].d(T)[sp].d(A)[sp].d(A)[sp].d(T)[sp].d(A)[sp].d(T)[sp].[moe](T)p.[moe](T)p.[moe](A)p.[moe](A)[sp].[moe]([m5C])}$$$$ (last 3' nucleoside missing)	0 score 0-7
RNA1{[moe](G)[sp].[moe](G)p.[moe](T)p.[moe](A)p.[moe](A)[sp].d(G)[sp].d([m5C])[sp].d(T)[sp].d(G)[sp].d([m5C])[sp].d(T)[sp].d(G)[sp].d(G)[sp].d(A)[sp].d(G)[sp].[moe](T)p.[moe](A)p.[moe](A)[sp].[moe](G)}$$$$ (last 3' nucleoside missing)	7 score 0-7
RNA1{[moe](T)[sp].[moe](T)p.[moe](T)p.[moe](G)p.[moe](A)[sp].d(G)[sp].d(A)[sp].d(T)[sp].d(A)[sp].d(T)[sp].d([m5C])[sp].d(T)[sp].d(T)[sp].[moe](G)p.[moe](T)p.[moe](G)[sp].[moe](A)}$$$$ (last 3' nucleoside missing)	3 score 0-7
RNA1{[moe](T)[sp].[moe](T)p.[moe](T)p.[moe](G)p.[moe](G)p.d([m5C])[sp].d(A)[sp].d(G)[sp].d(T)[sp].d(A)[sp].d(T)[sp].d(T)[sp].d(A)[sp].d([m5C])[sp].d([m5C])[sp].[moe](T)p.[moe]([m5C])p.[moe](T)[sp].[moe](A)}$$$$ (last 3' nucleoside missing)	1 score 0-7
RNA1{[moe]([m5C])[sp].[moe](G)p.[moe](G)p.[moe](A)p.[moe](T)[sp].d([m5C])[sp].d(T)[sp].d([m5C])[sp].d(T)[sp].d(T)[sp].d(T)[sp].d([m5C])[sp].d(A)[sp].d(G)[sp].d(G)[sp].[moe](G)p.[moe]([m5C])p.[moe](T)[sp].[moe](G)}$$$$ (last 3' nucleoside missing)	5 score 0-7
RNA1{[moe](T)[sp].[moe](G)p.[moe]([m5C])p.[moe]([m5C])p.d(A)[sp].d(T)[sp].d(T)[sp].d(T)[sp].d(A)[sp].d(T)[sp].d([m5C])[sp].d(T)[sp].d(G)[sp].d(T)[sp].[moe](G)p.[moe]([m5C])p.[moe](T)p.[moe](T)[sp].[moe](T)}$$$$ (last 3' nucleoside missing)	0 score 0-7
RNA1{[moe]([m5C])[sp].[moe](T)p.[moe](T)p.[moe](G)p.d(T)[sp].d(G)[sp].d(A)[sp].d(T)[sp].d(T)[sp].d(T)[sp].d(T)[sp].d([m5C])[sp].d([m5C])[sp].d([m5C])[sp].[moe]([m5C])p.[moe](G)p.[moe](T)p.[moe]([m5C])[sp].[moe](T)}$$$$ (last 3' nucleoside missing)	0 score 0-7
RNA1{[moe](G)[sp].[moe]([m5C])p.[moe](T)p.[moe](T)p.[moe](T)[sp].d(T)[sp].d(G)[sp].d(A)[sp].d(G)[sp].d(A)[sp].d(T)[sp].d(A)[sp].d(T)[sp].[moe]([m5C])p.[moe](T)p.[moe](T)[sp].[moe](G)}$$$$ (last 3' nucleoside missing)	3 score 0-7
RNA1{[moe](G)[sp].[moe](T)p.[moe](G)p.[moe]([m5C])p.d(T)[sp].d(T)[sp].d(T)[sp].d(T)[sp].d(G)[sp].d([m5C])[sp].d([m5C])[sp].d([m5C])[sp].d([m5C])[sp].d([m5C])[sp].[moe](T)p.[moe](G)p.[moe](T)p.[moe](A)[sp].[moe](G)}$$$$ (last 3' nucleoside missing)	3 score 0-7
RNA1{[moe]([m5C])[sp].[moe]([m5C])p.[moe](T)p.[moe](T)p.d(G)[sp].d(T)[sp].d(G)[sp].d(A)[sp].d(T)[sp].d(T)[sp].d(T)[sp].d(T)[sp].d([m5C])[sp].d([m5C])[sp].[moe]([m5C])p.[moe]([m5C])p.[moe](G)p.[moe](T)[sp].[moe]([m5C])}$$$$ (last 3' nucleoside missing)	1 score 0-7
RNA1{[moe](T)[sp].[moe](T)p.[moe](T)p.[moe](T)p.[moe](G)[sp].d(T)[sp].d(G)[sp].d(T)[sp].d(G)[sp].d(T)[sp].d(G)[sp].d(A)[sp].d(G)[sp].d(T)[sp].d(A)[sp].[moe](A)p.[moe](G)p.[moe](A)[sp].[moe](A)}$$$$ (last 3' nucleoside missing)	7 score 0-7
RNA1{[moe](T)[sp].[moe](G)p.[moe](A)p.[moe]([m5C])p.[moe](T)p.[moe](A)p.d(T)[sp].d([m5C])[sp].d(T)[sp].d(A)[sp].d(G)[sp].d(G)[sp].d(A)[sp].d(T)[sp].d(T)[sp].d(T)[sp].[moe](G)p.[moe](G)[sp].[moe]([m5C])}$$$$ (last 3' nucleoside missing)	2 score 0-7
RNA1{[moe](G)[sp].[moe](T)p.[moe](G)p.[moe](T)p.[moe](A)p.d(T)[sp].d(T)[sp].d(A)[sp].d(G)[sp].d(G)[sp].d(A)[sp].d(T)[sp].d([m5C])[sp].d([m5C])[sp].d([m5C])[sp].[moe](A)p.[moe](T)p.[moe]([m5C])[sp].[moe](T)}$$$$ (last 3' nucleoside missing)	2 score 0-7
RNA1{[moe](T)[sp].[moe](T)p.[moe](T)p.[moe](A)p.d(T)[sp].d(T)[sp].d(T)[sp].d(T)[sp].d(T)[sp].d([m5C])[sp].d([m5C])[sp].d(T)[sp].d([m5C])[sp].d(A)[sp].[moe](G)p.[moe]([m5C])p.[moe](G)p.[moe](A)[sp].[moe]([m5C])}$$$$ (last 3' nucleoside missing)	0 score 0-7
RNA1{[moe](G)[sp].[moe](G)p.[moe](T)p.[moe](A)p.[moe](T)[sp].d(G)[sp].d(A)[sp].d(T)[sp].d(A)[sp].d(G)[sp].d(G)[sp].d([m5C])[sp].d(T)[sp].d([m5C])[sp].d(T)[sp].[moe](G)p.[moe](G)p.[moe]([m5C])[sp].[moe](T)}$$$$ (last 3' nucleoside missing)	5 score 0-7
RNA1{[moe]([m5C])[sp].[moe](A)p.[moe]([m5C])p.[moe](A)p.[moe](T)p.d(T)[sp].d([m5C])[sp].d(A)[sp].d([m5C])[sp].d(T)[sp].d(A)[sp].d(A)[sp].d(T)[sp].d(A)[sp].d(T)[sp].[moe](T)p.[moe](T)p.[moe](A)[sp].[moe](A)}$$$$ (last 3' nucleoside missing)	0 score 0-7
RNA1{[moe](G)[sp].[moe](T)p.[moe](G)p.[moe]([m5C])p.[moe](T)[sp].d(G)[sp].d([m5C])[sp].d(T)[sp].d(G)[sp].d([m5C])[sp].d([m5C])[sp].d(A)[sp].d(G)[sp].d(A)[sp].d(G)[sp].[moe](T)p.[moe]([m5C])p.[moe]([m5C])[sp].[moe](T)}$$$$ (last 3' nucleoside missing)	6 score 0-7
RNA1{[moe]([m5C])[sp].[moe](T)p.[moe](T)p.[moe](T)p.[moe](A)[sp].d(T)[sp].d(T)[sp].d(T)[sp].d(T)[sp].d(T)[sp].d([m5C])[sp].d([m5C])[sp].d(T)[sp].[moe]([m5C])p.[moe](A)p.[moe](G)[sp].[moe]([m5C])}$$$$ (last 3' nucleoside missing)	4 score 0-7
RNA1{[moe](G)[sp].[moe](T)p.[moe](A)p.[moe]([m5C])p.[moe]([m5C])[sp].d([m5C])[sp].d(T)[sp].d(G)[sp].d(G)[sp].d(T)[sp].d(A)[sp].d(T)[sp].d(G)[sp].d(A)[sp].d(T)[sp].[moe](A)p.[moe](G)p.[moe](G)[sp].[moe]([m5C])}$$$$ (last 3' nucleoside missing)	6 score 0-7
RNA1{[moe](G)[sp].[moe](T)p.[moe]([m5C])p.[moe](T)p.d(T)[sp].d(T)[sp].d(A)[sp].d(T)[sp].d(T)[sp].d(T)[sp].d(T)[sp].d(T)[sp].d([m5C])[sp].d([m5C])[sp].[moe](T)p.[moe]([m5C])p.[moe](A)p.[moe](G)[sp].[moe]([m5C])}$$$$ (last 3' nucleoside missing)	3 score 0-7
RNA1{[moe](A)[sp].[moe](A)p.[moe](G)p.[moe]([m5C])p.[moe](T)[sp].d([m5C])[sp].d(T)[sp].d(G)[sp].d(A)[sp].d(G)[sp].d([m5C])[sp].d(T)[sp].d(G)[sp].d(T)[sp].d(G)[sp].[moe](G)p.[moe](T)p.[moe](G)[sp].[moe](T)}$$$$ (last 3' nucleoside missing)	4 score 0-7
RNA1{[moe]([m5C])[sp].[moe]([m5C])p.[moe](T)p.[moe](G)p.[moe](T)p.d(G)[sp].d(A)[sp].d([m5C])[sp].d(T)[sp].d(A)[sp].d(T)[sp].d([m5C])[sp].d(T)[sp].d(A)[sp].d(G)[sp].[moe](G)p.[moe](A)p.[moe](T)[sp].[moe](T)}$$$$ (last 3' nucleoside missing)	2 score 0-7
RNA1{[moe](G)[sp].[moe](T)p.[moe]([m5C])p.[moe](T)p.[moe](T)[sp].d(T)[sp].d(A)[sp].d(T)[sp].d(T)[sp].d(T)[sp].d(T)[sp].d(T)[sp].d([m5C])[sp].d([m5C])[sp].d(T)[sp].[moe]([m5C])p.[moe](A)p.[moe](G)[sp].[moe]([m5C])}$$$$ (last 3' nucleoside missing)	5 score 0-7
